# Measured values from patent US20120171123A1, “USES AND COMPOSITIONS FOR TREATMENT OF RHEUMATOID ARTHRITIS” (priority 2006, published 2012).
# Where two headings read alike, the source gives them in different places. Marks after values point to notes of the source that are not given here.
# What was measured:
# patients with active RA = test: Study A in France: AIMS2-SF quality of life; type: in vivo, human; settings: for AIMS2-SF Work component score: working patients only
# Excerpt: Efficacy of a treatment for rheumatoid arthritis can be determined by comparing AIMS2-SF scores given by subjects having rheumatoid arthritis. The AIMS2-SF is a shorter version of the AIMS2 (i.e., available in 2-page format) and has psychometric properties similar to those of the AIMS2 (see Guillemin et al. (1997) Arthritis Rheum. 40(7):1267).
# Unsatisfactory response or intolerance to at least one prior DMARD was required for enrollment in Study A. A 12-week study period was followed by an optional extension phase, with an efficacy assessment performed at Weeks 2, 6, 12, 20, and every eight weeks thereafter. Patients discontinued the study when they stopped receiving adalimumab or when […].
# The HAQ and the Arthritis Impact Measurement Scale Short Form (AIMS2-SF) are both extensively validated health-related quality-of-life outcome measures in RA (Guillemin et al. Arth Rheum 1997; 40(7):1267-1274). Both measures have been proven useful in cohort studies and clinical trials (Guillemin et al). The HAQ and the AIMS2-SF are effective in detecting both long-term and short-term health status changes (Guillemin et al). In France, Study A patients completed the French AIMS2-SF, a tool that measures disease impact on physical function and overall quality-of-life in five components. Study A began in France began in December 2002. Completion of the AIMS2-SF at Study Entry Visit 1, Week 12, and Week 28 (if patient participated in the continuation period) was a component added in March 2003 as a France-specific amendment to the study protocol. Because AIMS2-SF was introduced later into the study, the number of French patients answering the AIMS2-SF is smaller than the overall French Study A population
# A total of 266 patients out of 1,002 Study A patients in France completed the AIMS2-SF. AIMS2-SF responders recorded a significant improvement in quality-of-life.
# [1] = tested on: patients with long-standing RA; test: Study 4: DAS28, clinical remission and sustained remission; type: in vivo, human
# Excerpt: DAS28 represents disease activity, taking into consideration the TJC 28, SJC 28, CRP, and patient general health (based on VAS of 100 mm) (see Prevoo et al. (1995) Arthritis Rheum 38:44-48 and Van Gestel et al. (1999) J Rheumatol 26:705-711, each of which is incorporated by reference herein). DAS28 scores greater than or equal to 5.1 represent severe activity disease activity, less than 5.1 to 3.2 indicate moderate disease activity, less than 3.2 to 2.6 indicate low disease activity, and scores below 2.6 represent remission. At the end of the fourth year, the median DAS28 score was 2.7 (low disease activity). […] The largest increase in percentage of patients in clinical remission was seen between months 0-6, where an increase in the percentage of patients in remission went from 0% at month 0 to about 27% at month 6.
# The rates of sustained remission and time to remission were consistent across durations of the disease. Remission rates were defined as greater than or equal to 6 months by baseline disease duration. Rates of sustained remission and time to remission are described below in Table 16.
# Remission rates were defined as greater than or equal to 6 months by baseline disease duration.
# Efficacy outcomes were evaluated as observed data: DAS28; ACR 20/50/70; Tender Joint Count (TJC); Swollen Joint Count (SJC); and HAQ Disability Index. Baseline demographics and disease characteristics were similar in both Study 4 and Study 5 consistent with moderate to severe RA, as shown below in Table 64: […]
# [2] = tested on: RA patients treated with adalimumab in clinical trials in North America and Europe
# Method: The rate of TB was calculated for the period before screening was initiated (primarily Phase I trials) and the period after screening was implemented. The screening program consisted of a clinical interview, a tuberculin skin test, and, in most patients, a chest X-ray (CXR). The definition of PPD-positive depended on local country-specific guidelines. For those people who were PPD-positive, or for whom the investigator felt the risk of TB reactivation was high, INH was given for prophylaxis.
# The methodology differed among protocols. For instance, in Europe and Australia, it was initially used CXR only, and in later studies, CXR and purified protein derivative skin test (PPD) were both used. By contrast, in US and Canada, CXR and PPD were both used.
# [3] = Baseline to Week 12, mean of individual patient differences
# [4] = US/Canada and Europe RA trials through December 2004
substance,measurement,setting,value
"adalimumab: human anti-TNF mAb (HUMIRA, Abbott Laboratories), described in U.S. Pat. No. 6,090,382 as D2E7",AIMS2-SF Afect component score,patients with active RA; Baseline,4.7
same,AIMS2-SF Physical component score,patients with active RA; Baseline,3.9
same,AIMS2-SF Social component score,patients with active RA; Baseline,5.3
same,AIMS2-SF Symptom component score,patients with active RA; Baseline,6.7
same,"AIMS2-SF Physical component, % Change",patients with active RA; [3],−25.0^§ %
same,"AIMS2-SF Social component, % Change",patients with active RA; [3],1.6%
same,"AIMS2-SF Social component, Mean Change",patients with active RA; [3],−0.1
same,"AIMS2-SF Symptom component, % Change",patients with active RA; [3],−43.4^§ %
same,"AIMS2-SF Symptom component, Mean Change",patients with active RA; [3],−3.2^§
same,AIMS2-SF Work component score,patients with active RA; Baseline,4.2
same,AIMS2-SF Work component score,patients with active RA; Week 12,3.3
same,AIMS2-SF Afect component score,patients with active RA; week 12,3.6
same,AIMS2-SF Physical component score,patients with active RA; week 12,2.9
same,AIMS2-SF Social component score,patients with active RA; week 12,5.3
same,AIMS2-SF Symptom component score,patients with active RA; week 12,3.5
same,"DAS28, % change of mean clinical improvement from baseline",[1]; 6 months of exposure,39%
same,"DAS28, % change of mean clinical improvement from baseline",[1]; 12 months,44%
same,"DAS28, % change of mean clinical improvement from baseline",[1]; 24 months,45%
same,"DAS28, % change of mean clinical improvement from baseline",[1]; 36 months,47%
same,"DAS28, % change of mean clinical improvement from baseline",[1]; 48 months,50%
same,patients in clinical remission (DAS28<2.6),[1]; 48 months,49%
same,patients achieving clinical remission (DAS28<2.6),[1]; Year 5,Over 40%
same,Months in remission (mean),[1]; baseline DAS28 < 5.1,27 months
same,Months until remission (mean),[1]; baseline DAS28 < 5.1,8 months
same,patients with sustained remission (≧6 months),[1]; baseline DAS28 < 5.1,"(n = 105, 50%*)"
same,Months in remission (mean),[1]; baseline DAS28 ≧ 5.1,23 months
same,Months until remission (mean),[1]; baseline DAS28 ≧ 5.1,11 months
same,patients with sustained remission (≧6 months),[1]; baseline DAS28 ≧ 5.1,"(n = 140, 22%**)"
same,% of visits with ACR70 during remission,[1]; disease duration >2 years,64%
same,% of visits with CRP <10 mg/L during remission,[1]; disease duration >2 years,95%
same,% of visits with SJC = 0 during remission,[1]; disease duration >2 years,54%
same,% of visits with TJC = 0 during remission,[1]; disease duration >2 years,70%
same,Months in remission (mean),[1]; disease duration >2 years,25 months
same,Months until remission (mean),[1]; disease duration >2 years,10 months
same,patients with sustained remission (≧6 months),[1]; disease duration at entry >2 years,"(n = 209, 29%*)"
same,patients with sustained remission (≧6 months),[1]; disease duration at entry ≦2 years,"(n = 36, 31%*)"
same,% of visits with ACR70 during remission,[1]; disease duration ≦2 years,71%
same,% of visits with CRP <10 mg/L during remission,[1]; disease duration ≦2 years,94%
same,% of visits with SJC = 0 during remission,[1]; disease duration ≦2 years,64%
same,% of visits with TJC = 0 during remission,[1]; disease duration ≦2 years,77%
same,Months in remission (mean),[1]; disease duration ≦2 years,25 months
same,Months until remission (mean),[1]; disease duration ≦2 years,10 months
same,median DAS28 score,[1]; end of fourth year,2.7
same,patients in clinical remission (DAS28<2.6),[1]; month 6,about 27%
same,TB cases: Culture positive,[2]; [4],62%
same,TB cases: Extrapulmonary,[2]; [4],65%
same,TB: Total Cases,[2]; [4],34
same,TB cases: Median months from treatment to diagnosis (range),"[2]; US/Canada and Europe RA trials through December 2004, range 1-54",7.2 months (1-54)
same,cases of TB,[2]; after screening,27 cases
same,rate of TB,"[2]; after screening, 14,010 pt-yrs",0.0019 /pt-yr
same,rate of TB,"[2]; after screening, Europe",0.0027
same,rate of TB,"[2]; after screening, North America",0.0008
same,cases of TB,[2]; before screening,7 cases
same,rate of TB,"[2]; before screening, 534 pt-yrs",0.013 /pt-yrs
same,reduction in the rate of developing TB with screening,"[2]; human, in vivo",85%
same,TB cases: Outcome Resolved,"[2]; of 34 cases, one patient died of unrelated causes",32**
same,median time to the development of TB,[2]; range 14-1636,167 days
